Measurements taken from patent US5795899A, “Soluble salts of 4-amino-2-(4,4-dimethylimidazolidin-2-on-1-yl) pyrimidine-5-carboxylic acid N-methyl-N-(3-trifluoromethylphenyl)-amide, a process for the preparation thereof, the use thereof as pharmaceuticals and starting materials” (Hoechst Aktiengesellschaft, priority 1992, dated 1998).
≈ marks a conversion by molar mass, not a printed value. Where two headings read alike, the source gives them in different places. Values belong to the molecule of their own block, whether it stands above or below them.

Key:
[1] = physchem; conditions: water
[2] = tested on: colon carcinoma cells, HT 29; test: MTT assay, inhibition of cell proliferation, HT 29; assay type: cell-based; conditions: Homo sapiens, 72 hours incubation
Method: (§1) The reduced inhibitory effect on cell proliferation was tested on exponentially growing animal (mouse leukemia cells, L 1210) and human (bronchial carcinoma cells, A 549; colon carcinoma cells, HT 29) tumor cells. This entailed the tumor cells being incubated in RPMI standard medium with various concentrations of the test substances for 72 hours. Cell incubations only in fresh medium served as control. Incubations were set up in quadruplet. […] After incubation for a further 7 to 24 hours, the cell supernatant was carefully removed and the formazan dye in the cells was solubilized by adding DMSO and measured quantitatively by photometry at 492 nm. The ratio of the extinction of the substance incubations to the control incubation was quantified. The coefficient of variation in each incubation series was less than 15%. The following Table 6 indicates the IC50 values (IC50 [μg/ml] is the concentration of the test substance per ml which is necessary for 50% inhibition) from these investigations.

[3] = tested on: bronchial carcinoma cells, A 549; test: MTT assay, inhibition of cell proliferation, A 549; assay type: cell-based; conditions: Homo sapiens, A549; 72 hours incubation
Method: as §1

[4] = tested on: mouse leukemia cells, L 1210; test: MTT assay, inhibition of cell proliferation, L1210; assay type: cell-based; conditions: 72 hours incubation
Method: as §1

[5] = tested on: serum lipoproteins; test: Effect on serum lipoproteins of normolipemic male rats in a subchronic test; assay type: in vivo, male Wistar rats, HOE: WISKf (SPF 71) strain; conditions: 100 mg/kg/day, oral, 7 days
Method: 4.1 Effect on serum lipoproteins of normolipemic male rats in a subchronic test
Groups of in each case 10 male rats of the HOE: WISKf (SPF 71) strain with an initial weight above 180 g received once a day (in the morning) the test product or the comparison product in 1% aqueous ®Tylose MH 300 solution by stomach tube (0.5 ml/100 g of body weight); the control group in each case received only the vehicle. The last (7th) administration took place 24 hours before removal of blood and sacrifice. There was free access to food and water during the test. The food was withdrawn 24 hours before the removal of blood.
The serum from all 10 rats in a group was pooled for the analysis of the serum lipoproteins. The serum lipoproteins were separated with a preparative ultracentrifuge (KONTRON TGA 65, Rotor BECKMAN 50.4 Ti).
The following conditions specified by Koga, S., Horwitz, D. L., and Scanu, A. M., Journal of Lipid Research 10, 577 (1969) and Havel, R. J., Eder, H. A., and Bragdon, H. H., J. Clin. Invest. 34, 1345 (1955) were used to separate VLDL, LDL and HDL:
Test kits from BOEHRINGER/Mannheim were used for the enzymatic determination of cholesterol and triglycerides in the separated lipoprotein fractions (compare Siedel, J., Schlumberger, H., Klose, S., Ziegenhorn, J. and Wahlefeld, A. W., J. Clin. Chem. Clin. Biochem. 19, 838 (1981) and Wahlefeld, A. W., in: H. O. Bergmeier: Methoden der enzymatischen Analyse (Methods of Enzymatic Analysis), 2nd edition, Volume II, Verlag Chemie 1974, page 1878). The proteins were determined by the method of Lowry (Lowry, O. H., Roseborough, N. J., Farr, A. L. and R. J. Randell, J. Biol. Chem. 193, 265 (1951)).
Clofibrate was used as comparison product.

[6] = tested on: carbohydrate-induced hypertriglyceridemia; test: Inhibition of carbohydrate-induced hypertriglyceridemia; assay type: in vivo, male Sprague-Dawley rats
Method: Groups of in each case 10 male Sprague-Dawley rats (supplied by the breeder Mollegard with a weight of 250-280 g) received on each of 4 consecutive days one administration of the compound dissolved in PEG 400 by gavage. In addition, after the 3rd administration and 8 and 24 hours later they received 2.5 g of fructose/kg, likewise by gavage. Moreover, after the 3rd administration of product, 50% strength fructose solution was offered to them as drinking water ad libitum, and the food was withdrawn. Retroorbital removal of blood, from which the serum was obtained for the triglyceride determination and VLDL preparation in the ultracentrifuge (flotation at d=1.006), took place 3 hours after the last product/fructose administration. The food received by the animals from 1 week before the 1st administration and up to the 3rd administration was a diet with 40% casein in the feed meal.
The animals develop, as a result of this treatment, a hypertriglyceridemia which approximately corresponds to Fredrickson phenotype IV in humans. The serum triglycerides of the normal animals increased from 0.54 to 1.1 mmol/l, and the VLDL triglycerides from 0.67 to 1.81.

[7] = tested on: hypercholesterolemia; test: Effect on experimental hypercholesterolemia in male rats; assay type: in vivo, male Wistar rats, HOE: WISKf (SPF 71) strain; conditions: 100 mg/kg/day, oral, 7 days
Method: Groups of in each case 10 male rats of the HOE: WISKf (SPF 71) strain with a weight of about 200 g received each day in the morning a cocktail which contained the substances required to generate a combined dietetic/hormonal hypercholesterolemia, and in each case the product to be tested for the inhibition of hypercholesterolemia, in appropriate dosage. The cocktail was composed of a mixture of 100 g of cholesterol, 30 g of propylthiouracil and 100 g of cholic acid in 1 l of peanut oil. 1 ml of this/100 g of body weight was administered by gavage. The products to be tested were suspended in this cocktail in a concentration such that it contained the daily dose indicated in Table 4 on administration of the amount mentioned above. The other procedure for the treatment and the analysis of the individual parameters were carried out as indicated under 4.1.
Clofibrate was used as comparison product. The results are compiled in Table 4, wherein a) indicates the absolute values and b) indicates the percentage changes.

[8] = Table 1, Temp. [°C]: No. 1 25.0, 2 23.0, 3 26.2, 4 25.1, 5 25.2, 6 24.1, 7 24.5, 8 24.2, 9 24.2, 10 25.7, 11 25.8
[9] = Table 2, Temp. [°C]: hydrochloride 25.0, nitrate 23.5, p-toluenesulfonate 23.2, hydrogen (R,R)-tartrate 24.6, free base 24.8

SMILES: CC1(C)CN(c2ncc(C(=O)Nc3ccc(F)c(C(F)(F)F)c3)c(N)n2)C(=O)N1 [Compound 3]
1 part by mass dissolves in . . . parts of H2 O [8]: 703 parts of H2 O

SMILES: CN(C(=O)c1cnc(N2CC(C)(C)NC2=O)nc1N)c1cccc(C(F)(F)F)c1.O=[N+]([O-])O [Nitrate, 4-amino-2-(4,4-dimethyl-2-oxo-1-imidazolidinyl)pyrimidine-5-carboxylic acid N-methyl-N-(3-trifluoromethylphenyl)amide nitrate]
1 part by mass dissolves in . . . parts of H2 O [9]: 8.13 parts of H2 O | solubility [1]: 110 mg/mL

SMILES: CC1(C)CN(c2ncc(C(=O)Nc3cc(C(F)(F)F)ccc3Cl)c(N)n2)C(=O)N1 [Compound 4]
1 part by mass dissolves in . . . parts of H2 O [8]: 217 parts of H2 O

SMILES: CC1(C)CN(c2ncc(C(=O)Nc3ccc(Cl)c(C(F)(F)F)c3)c(N)n2)C(=O)N1 [Compound 5]
1 part by mass dissolves in . . . parts of H2 O [8]: 1055 parts of H2 O

SMILES: CN(C(=O)c1cnc(N2CC(C)(C)NC2=O)nc1N)c1cccc(C(F)(F)F)c1.Cc1ccc(S(=O)(=O)O)cc1 [p-Toluenesulfonate, 4-amino-2-(4,4-dimethyl-2-oxo-1-imidazolidinyl)pyrimidine-5-carboxylic aci d N-methyl-N-(3-trifluoromethylphenyl)amide p-toluenesulfonate]
1 part by mass dissolves in . . . parts of H2 O [9]: 14.44 parts of H2 O | solubility [1]: 65 mg/mL

SMILES: CN(C(=O)c1cnc(N2CC(C)(C)NC2=O)nc1N)c1cccc(C(F)(F)F)c1.O=C(O)C(O)C(O)C(=O)O [Hydrogen (R,R)-tartrate, 4-amino-2-(4,4-dimethyl-2-oxo-1-imidazolidinyl)pyrimidine-5-carboxylic acid N-methyl-N-(3-trifluoromethylphenyl)amide hydrogen (R,R)-tartrate]
1 part by mass dissolves in . . . parts of H2 O [9]: < 9.90 parts of H2 O | solubility [1]: > 91 mg/mL

SMILES: CCOC(=O)C(C)(C)Oc1ccc(Cl)cc1 [Clofibrate, reference compound]
% change compared with control, protein LDL [5]: -32% | % change compared with control, total cholesterol LDL [5]: -31% | % change compared with control, total cholesterol VLDL [5]: -30% | % change compared with control, triglycerides VLDL [5]: -34% | Triglycerides in serum, % change from fructose control ([6]; 100 mg/kg/day, oral, 4 days): -25% | Triglycerides in the VDVL fraction, % change from fructose control ([6]; 100 mg/kg/day, oral, 4 days): -37% | Triglycerides in the VDVL fraction, pool n = 10 ([6]; 100 mg/kg/day, oral, 4 days): 1.15 mmol/L | Triglycerides in serum (x) ([6]; 100 mg/kg/day, oral, 4 days, mean x): 0.83 mmol/L | Inhibitory effect on increase in VLDL triglycerides (in words) ([6]; dose 100 times higher than 1 mg/kg/day): only a slight inhibitory effect | % change compared with control, protein "HDL" d > 1.04 [7]: -27% | % change compared with control, protein LDL [7]: +16% | % change compared with control, protein VLDL [7]: -63% | % change compared with control, total cholesterol "HDL" d > 1.04 [7]: +10% | % change compared with control, total cholesterol LDL [7]: +16% | % change compared with control, total cholesterol VLDL [7]: +27% | % change compared with control, triglycerides VLDL [7]: +21% | Lipoprotein fraction protein "HDL" [7]: 3920 | Lipoprotein fraction protein LDL [7]: 1435 | Lipoprotein fraction protein VLDL [7]: 809 | Lipoprotein fraction total cholesterol "HDL" [7]: 648 | Lipoprotein fraction total cholesterol LDL [7]: 5434 | Lipoprotein fraction total cholesterol VLDL [7]: 5924 | Lipoprotein fraction triglycerides VLDL [7]: 1770 | Serum % change compared with control at the end of treatment, total cholesterol [7]: +20% | Serum % change compared with control at the end of treatment, triglycerides [7]: +26% | Triglycerides, pool [7]: 3.68 mmol/L | Total cholesterol (x) ([7]; mean x): 880 mg/dL

SMILES: CC1(C)CN(c2ncc(C(=O)Nc3cccc(C(F)(F)F)c3)c(N)n2)C(=O)N1 [Compound 2]
Solubility in water: Concentration in % by weight [8]: 0.08 % by weight | Solubility in water: Molarity [8]: 0.90 × 10^-3

SMILES: COc1ccc(C(F)(F)F)cc1NC(=O)c1cnc(N2CC(C)(C)NC2=O)nc1N [Compound 6]
Solubility in water (in words): sparingly soluble in water | 1 part by mass dissolves in . . . parts of H2 O [8]: 75 parts of H2 O

Second part, the molecule after the results:

1 part by mass dissolves in . . . parts of H2 O [8]: 725 parts of H2 O | Solubility in water: Concentration in % by weight [8]: 0.13 % by weight
SMILES: CCCC1(C)CN(c2ncc(C(=O)Nc3ccc(Cl)c(C(F)(F)F)c3)c(N)n2)C(=O)N1 (stereo not drawn) [No. 9, reference compound]

IC50 [2]: 4.3 µg/mL (≈ 10.9 µM) | IC50 [3]: 3.4 µg/mL (≈ 8.62 µM) | IC50 [4]: 0.7 µg/mL (≈ 1.78 µM)
SMILES: CC1(C)CN(c2ncc(C(=O)Nc3cccc(C(F)(F)F)c3)c(N)n2)C(=O)N1 [No. 1, 4-amino-2-(4,4-dimethylimidazolidin-2-on-1-yl)pyrimidine-5-carboxylic acid N-(3-trifluoromethylphenyl)amide, reference compound]

Solubility in water (in words): exceptionally slightly soluble in water
SMILES: CC1(C)CN(c2ncc(C(=O)Nc3cccc(C(F)(F)F)c3)c(N)n2)C(=O)N1 [imanixil, 4-amino-2-(4,4-dimethylimidazolidin-2-on-1-yl)pyrimidine-5-carboxylic acid N-(3-trifluoromethylphenyl)amide, reference compound]

1 part by mass dissolves in . . . parts of H2 O [8]: 554 parts of H2 O
SMILES: COc1ccc(NC(=O)c2cnc(N3CC(C)(C)NC3=O)nc2N)cc1C(F)(F)F [Compound 7]

1 part by mass dissolves in . . . parts of H2 O [8]: 781 parts of H2 O
SMILES: CCCC1(C)CN(c2ncc(C(=O)Nc3cc(C(F)(F)F)ccc3Cl)c(N)n2)C(=O)N1 (stereo not drawn) [Compound 8]

1 part by mass dissolves in . . . parts of H2 O [8]: 255 parts of H2 O | Solubility in water: Molarity [8]: 8.54 × 10^-3
SMILES: CCCC1(C)CN(c2ncc(C(=O)Nc3cccc(C(F)(F)F)c3)c(N)n2)C(=O)N1 (stereo not drawn) [No. 10, reference compound]

1 part by mass dissolves in . . . parts of H2 O [8]: 277 parts of H2 O
SMILES: CC1NC(=O)N(c2ncc(C(=O)Nc3cccc(C(F)(F)F)c3)c(N)n2)C1C (stereo not drawn) [No. 11, reference compound]
